Test results from patent US10947213B1 (Merck Patent GmbH, priority 2015, dated 2021).
Counter-ions that a name gives are not always drawn.

Each compound was assayed against T1, TLR7/NFKb HEK cells (Homo sapiens, UniProt Q9NYK1) (assay: HEK Cell Assay (TLR7/NFKb reporter, Steady-Glo luciferase readout)). Details: 30 min compound preincubation, then R*48 agonist for 5 hours, read-out: Potency.
T1 construct: expressed in transfected cells; host or cells: HEK cells (TLR7/NFKb reporter line)
T1 sequence (Q9NYK1 27-1049): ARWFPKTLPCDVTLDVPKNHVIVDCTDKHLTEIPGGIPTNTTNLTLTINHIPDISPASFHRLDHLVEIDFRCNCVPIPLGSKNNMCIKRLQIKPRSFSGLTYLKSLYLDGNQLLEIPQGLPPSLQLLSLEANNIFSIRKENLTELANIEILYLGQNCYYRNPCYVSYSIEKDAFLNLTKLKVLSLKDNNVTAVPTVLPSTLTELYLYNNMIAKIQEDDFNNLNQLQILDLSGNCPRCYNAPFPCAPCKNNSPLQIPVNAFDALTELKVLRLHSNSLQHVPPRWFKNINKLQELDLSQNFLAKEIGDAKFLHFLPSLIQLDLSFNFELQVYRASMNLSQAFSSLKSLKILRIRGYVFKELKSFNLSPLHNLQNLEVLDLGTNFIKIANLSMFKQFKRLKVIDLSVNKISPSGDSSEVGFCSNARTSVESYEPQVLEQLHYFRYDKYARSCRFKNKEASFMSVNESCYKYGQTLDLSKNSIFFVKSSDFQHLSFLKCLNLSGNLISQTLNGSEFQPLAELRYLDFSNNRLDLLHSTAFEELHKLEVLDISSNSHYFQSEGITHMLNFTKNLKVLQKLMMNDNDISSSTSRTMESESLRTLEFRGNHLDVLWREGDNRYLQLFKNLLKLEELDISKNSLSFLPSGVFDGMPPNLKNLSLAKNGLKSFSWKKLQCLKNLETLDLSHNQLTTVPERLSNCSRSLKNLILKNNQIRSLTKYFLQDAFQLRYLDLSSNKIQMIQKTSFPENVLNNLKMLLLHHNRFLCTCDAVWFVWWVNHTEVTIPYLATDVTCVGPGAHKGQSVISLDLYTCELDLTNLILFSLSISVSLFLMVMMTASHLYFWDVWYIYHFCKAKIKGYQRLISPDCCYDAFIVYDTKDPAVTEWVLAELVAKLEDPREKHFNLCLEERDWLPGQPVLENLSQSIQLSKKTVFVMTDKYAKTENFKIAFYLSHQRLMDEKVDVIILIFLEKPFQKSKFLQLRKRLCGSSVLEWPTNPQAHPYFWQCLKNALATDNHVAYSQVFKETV
Type: cell-based
Method in brief: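 Steady-Glo luminescence after 5 h stimulation with R*48 agonist, following 30 min compound preincubation. Assay run in HEK cells carrying a TLR7/NFKb luciferase reporter, plated at 5000 cells/well and grown 24 h at 37° C (10% CO2) before treatment.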

| SMILES | IC50 [µM] |
| --- | --- |
| C[C@H]1C[C@@H](NC(=O)CN(C)C)CN(c2ccc(C#N)c3ncncc23)C1 [Compound 447, N-[(3R,5S)-1-(8-Cyano-quinazolin-5-yl)-5-methyl-piperidin-3-yl]-2-dimethylamino-acetamide] | < 1 |
| O=C(CN1CCCCC1)NCC1CCN(c2ccc(C(F)(F)F)c3ncccc23)CC1 [Compound 448, 2-Piperidin-1-yl-N-[1-(8-trifluoromethyl-quinolin-5-yl)-piperidin-4-ylmethyl]-acetamide] | 1 to 10 |
| CN[C@@H]1C[C@H](C)CN(c2ccc(C(F)(F)F)c3ncccc23)C1 [Compound 451, Methyl-[(3R,5S)-5-methyl-1-(8-trifluoromethyl-quinolin-5-yl)-piperidin-3-yl]-amine hydrochloride] | < 1 |
| C[C@H]1C[C@@H](N(C)C(=O)CN(C)C)CN(c2ccc(C(F)(F)F)c3ncccc23)C1 [Compound 452, 2-Dimethylamino-N-methyl-N-[(3R,5S)-5-methyl-1-(8-trifluoromethyl-quinolin-5-yl)-piperidin-3-yl]-acetamide] | < 1 |
| CCN(CC)CCNC(=O)N1CCN(c2ccc(C#N)c3nccnc23)CC1 [Compound 453, 4-(8-Cyano-quinoxalin-5-yl)-piperazine-1-carboxylic acid (2-diethylamino-ethyl)-amide] | < 1 |
| CN(C)C(=O)CCC(=O)N1CCN(c2ccc(C#N)c3nccnc23)CC1 [Compound 454, 4-[4-(8-Cyano-quinoxalin-5-yl)-piperazin-1-yl]-N,N-dimethyl-4-oxo-butyramide] | 1 to 10 |
| C[C@@H]1CN(c2ncc(F)c3nccnc23)C[C@H](C)O1 [Compound 455, cis-5-(2,6-Dimethyl-morpholin-4-yl)-8-fluoro-pyrido[3,4-b]pyrazine] | > 10 |
| CCN(CC)CCNC(=O)C1CCN(c2ncc(F)c3nccnc23)CC1 [Compound 456, 1-(8-Fluoro-pyrido[3,4-b]pyrazin-5-yl)-piperidine-4-carboxylic Acid (2-diethylamino-ethyl)-amide] | > 10 |
| C[C@H]1C[C@@H](N)CN(c2ncc(C#N)c3ncncc23)C1 [Compound 458, 5-((3R,5S)-3-Amino-5-methyl-piperidin-1-yl)-pyrido[4,3-d]pyrimidine-8-carbonitrile hydrochloride] | > 10 |
| C[C@H]1C[C@@H](N)CN(c2ncc(F)c3nccnc23)C1 [Compound 459, (3R,5S)-1-(8-Fluoro-pyrido[3,4-b]pyrazin-5-yl)-5-methyl-piperidin-3-ylamine hydrochloride] | 1 to 10 |
| C[C@H]1C[C@@H](NC(=O)CN(C)C)CN(c2ncc(F)c3nccnc23)C1 [Compound 460, 2-Dimethylamino-N-[(3R,5S)-1-(8-fluoro-pyrido[3,4-b]pyrazin-5-yl)-5-methyl-piperidin-3-yl]-acetamide] | > 10 |
| Cc1ccc(N2C[C@@H](C)C[C@@H](N)C2)c2cccnc12 [Compound 462, (3R,5S)-5-Methyl-1-(8-methyl-quinolin-5-yl)-piperidin-3-ylamine hydrochloride] | < 1 |
| CN(C)CCNC(=O)N1CCN(c2ccc(C#N)c3nccnc23)CC1 [Compound 463, 4-(8-Cyano-quinoxalin-5-yl)-piperazine-1-carboxylic Acid (2-dimethylamino-ethyl)-amide] | < 1 |
| O=C(N[C@@H]1CNC[C@@H]1F)C1CCN(c2ccc(C(F)(F)F)c3ncccc23)CC1 [Compound 464, 1-(8-Trifluoromethyl-quinolin-5-yl)-piperidine-4-carboxylic acid ((3R,4S)-4-fluoro-pyrrolidin-3-yl)-amide hydrochloride] | < 1 |
| C[C@H]1C[C@@H](N(C)C(=O)CC(C)(C)N)CN(c2ccc(C(F)(F)F)c3ncccc23)C1 [Compound 465, 3-Amino-3,N-dimethyl-N-[(3R,5S)-5-methyl-1-(8-trifluoromethyl-quinolin-5-yl)-piperidin-3-yl]-butyramide] | < 1 |
| Cc1ccc(N2C[C@@H](C)C[C@@H](NC(=O)CN3CCOCC3)C2)c2cccnc12 [Compound 466, N-[(3R,5S)-5-Methyl-1-(8-methyl-quinolin-5-yl)-piperidin-3-yl]-2-morpholin-4-yl-acetamide] | 1 to 10 |
| C[C@@H]1CN(c2ccc(C#N)c3nccnc23)C[C@H](CN2CCC(N3CCOCC3)CC2)O1 [Compound 467, 8-[(2R,6S)-2-methyl-6-{[4-(morpholin-4-yl)piperidin-1-yl]methyl}morpholin-4-yl]quinoxaline-5-carbonitrile] | < 1 |
| C[C@@H]1CN(c2ccc(C#N)c3nccnc23)C[C@H](C(=O)NC2CCN(C)CC2)O1 [Compound 468, (2R,6R)-4-(8-cyanoquinoxalin-5-yl)-6-methyl-N-(1-methylpiperidin-4-yl)morpholine-2-carboxamide] | < 1 |
| C[C@H]1C[C@@H](NC(=O)CN(C)C)CN(c2ccc(F)c3ncccc23)C1 [Compound 469, 2-Dimethylamino-N-[(3R,5S)-1-(8-fluoro-quinolin-5-yl)-5-methyl-piperidin-3-yl]-acetamide] | 1 to 10 |
| C[C@H]1C[C@@H](NC(=O)CN2CCOCC2)CN(c2ccc(F)c3ncccc23)C1 [Compound 470, N-[(3R,5S)-1-(8-Fluoro-quinolin-5-yl)-5-methyl-piperidin-3-yl]-2-morpholin-4-yl-acetamide] | 1 to 10 |
| C[C@H]1C[C@@H](NC(=O)CC2CCN(C)CC2)CN(c2ccc(F)c3ncccc23)C1 [Compound 471, N-[(3R,5S)-1-(8-Fluoro-quinolin-5-yl)-5-methyl-piperidin-3-yl]-2-(1-methyl-piperidin-4-yl)-acetamide] | < 1 |
| C#CC(=O)N[C@@H]1C[C@H](C)CN(c2ccc(C(F)(F)F)c3ncccc23)C1 [Compound 472, Propynoic acid [(3R,5S)-5-methyl-1-(8-trifluoromethyl-quinolin-5-yl)-piperidin-3-yl]-amide] | < 1 |
| C#CCC(=O)N[C@@H]1C[C@H](C)CN(c2ccc(C(F)(F)F)c3ncccc23)C1 [Compound 473, But-3-ynoic acid [(3R,5S)-5-methyl-1-(8-trifluoromethyl-quinolin-5-yl)-piperidin-3-yl]-amide] | < 1 |
| C[C@H]1C[C@@H](NC(=O)CNS(C)(=O)=O)CN(c2ccc(C(F)(F)F)c3ncccc23)C1 [Compound 474, 2-Methanesulfonylamino-N-[(3R,5S)-5-methyl-1-(8-trifluoromethyl-quinolin-5-yl)-piperidin-3-yl]-acetamide] | 1 to 10 |
| C[C@H]1C[C@@H](NC(=O)[C@@H](N)CO)CN(c2ccc(C(F)(F)F)c3ncccc23)C1 [Compound 476] | < 1 |
| C[C@H]1C[C@@H](NC(=O)NCCN(C)C)CN(c2ccc(C(F)(F)F)c3ncccc23)C1 [Compound 477, 1-(2-Dimethylamino-ethyl)-3-[(3R,5S)-5-methyl-1-(8-trifluoromethyl-quinolin-5-yl)-piperidin-3-yl]-urea] | < 1 |
| C[C@H]1C[C@@H](NC(=O)CC2(N)CCCCC2)CN(c2ccc(C(F)(F)F)c3ncccc23)C1 [Compound 483, 2-(1-Amino-cyclohexyl)-N-[(3R,5S)-5-methyl-1-(8-trifluoromethyl-quinolin-5-yl)-piperidin-3-yl]-acetamide] | < 1 |
